Results from patent US6670391B2, “Benzopyran derivative and antiallergic agent” (Dainippon Ink and Chemicals, Inc., priority 2001, dated 2003).
Where two headings read alike, the source gives them in different places.

System: male Hartley guinea pigs actively sensitized with egg-white albumin
Assay: Antiallergic Test due to Antigen-Induced Immediate Type Airway Reaction and Delayed Type Airway Reaction
Type: in vivo
Settings: Cavia porcellus, po, 10 mg/kg orally once one hour before induction (prednisolone 10 mg/kg orally twice, 16 hours and 2 hours before)
Description: Using an ultrasonic nebulizer (NE-U12, manufactured by OMRON Corporation), male Hartley guinea pigs (aged six weeks) were actively sensitized by consecutive 8-day inhalation of a 1 wt % physiological saline of egg-white albumin for 10 minutes a day. After one week passed since the final sensitization, an asthmatic disease state was induced by inhalation of a 2 wt % physiological saline of egg-white albumin for 5 minutes in the same manner. To inhibit the synthesis of endogenous steroid, metyrapone (10 mg/kg) was intravenously administered at 24 hours and one hour before the induction. To inhibit anaphylactic shock, pyrilamine (10 mg/kg) was intraperitoneally administered 30 minutes before inducing the asthmatic reaction.
After inducing the asthmatic reaction, the airway resistance (specific airway resistance Raw) was measured for 1 minute before inducing the asthmatic reaction, and 1 minute, 2 hours, 4 hours, 5 hours, 6 hours, 7 hours, 8 hours, and 23-24 hours after inducing the asthmatic reaction, using an airway resistance measuring apparatus (Pulmos-I, manufactured by M.I.P.S.). An average value of the airway resistance was determined, and an airway resistance increase ratio with respect to the value of the airway resistance before the induction was calculated by the following Equation 1.
Each of the test substances (10 mg/kg) listed in Table 1 was suspended in an aqueous 0.5% methyl cellulose solution, and the suspension was orally administered once one hour before inducing the asthmatic reaction. A positive control substance (prednisolone) was orally administered twice at a dosage of 10 mg/kg 16 hours and 2 hours before inducing the asthmatic reaction. The test was carried out on 8 animals per group.
According to this test procedure, a two-phase increase in airway resistance was observed immediately after inducing the asthmatic reaction and after 4-8 hours passed since inducing the asthmatic reaction. In the present invention, the former increase in airway resistance is referred to as the immediate type asthmatic reaction, while the latter increase in airway resistance is referred to as the delayed type asthmatic reaction. With respect to the evaluation of the drug, for the immediate type asthmatic reaction, the inhibition percentage with respect to the asthmatic reaction inhibiting medium administration group (referring to the group wherein a test drug is not administered after inducing the asthmatic reaction, hereinafter merely referred to as the “medium administration group”) was determined by Equation 2 using the airway resistance increase ratio after one minute gas passed since the induction as an index.
For the delayed type asthmatic reaction, the inhibition percentage with respect to the medium administration group was determined by the following Equation 3 using the area under the curve (AUC4-8) of the airway resistance increase ratio up to 4-8 hours after inducing the asthmatic reaction as an index. As an example, the relationship between the airway resistance increase ratio up to 4-8 hours after inducing the asthmatic reaction of the delayed type asthmatic reaction and time in the medium administration group, the prednisolone administration group, and the compound (216) administration group is shown in FIG. 1. As used herein, the area under the curve showing the relationship between the airway resistance increase ratio and time is (AUC4-8)
Airway resistance increase ratio (%)=(airway resistance after inducing the asthmatic airway resistance−airway resistance before inducing the asthmatic reaction)/(airway resistance before inducing the asthmatic reaction)×100
Inhibition (%)=(1−airway resistance increase ratio after one minute has passed since inducing the asthmatic reaction of the test substance administration group/airway resistance increase ratio after one minute has passed since inducing the asthmatic reaction of the medium administration group)×100 […]

[1] = 1 min, airway resistance increase ratio one minute after induction vs medium administration group, read-out: Inhibition (%) against immediate type allergy
[2] = AUC4-8 of airway resistance increase ratio 4-8 hours after induction vs medium administration group, read-out: Inhibition (%) against delayed type allergy

Compound	inhibition in vivo at 10 mg/kg [1] [%]	inhibition in vivo at 10 mg/kg [2] [%]
CCCCCCCCOc1c(O)c2cccc(OCCC(=O)O)c2oc1=O [Compound (390), 3-octyloxy-4-hydroxy-8-(2-hydroxycarbonylethoxy)-2H-1-benzopyran-2-one]	29.7	61.1
C[C@]12C=CC(=O)C=C1CC[C@@H]1[C@@H]2[C@@H](O)C[C@@]2(C)[C@H]1CC[C@]2(O)C(=O)CO [Prednisolone, prednisolone, reference compound]	29	51.4
